The values that follow come from patent US6482819B1, “2,3-benzodiazepine derivatives” (Gyogyszerkutato Intezet Kft., priority 1997, dated 2002).

pIC50: −log10 of the molar value.

The subject of series [1] is CD 1 mice. Description: Muscle relaxant activity, rotarod test. In kind it is in vivo. Particulars: Mus musculus, ip. How it is done:
(§1) The muscle relaxant activity of the compounds of general formula (I) was measured in the “inclined screen” test of Randall [J. Pharmacol. Exp. Ther. 129, 163 (1960)] and in the rotarod test [J. Am. Pharm. Assoc. 46, 208 (1975)]. The compounds were administered in 3 i. p. doses to ten CD 1 mice in each dose group.

For series [2], the system named is CD 1 mice. Description: Muscle relaxant activity, inclined screen test. In kind it is in vivo. Particulars: Mus musculus, ip. How it is done: as §1
The subject of series [3] is electroshock convulsions in mice. Description: Anticonvulsive effect, electroshock test. In kind it is in vivo. Particulars: Mus musculus, po, 60 minutes pretreatment. As for the experimental part:
(§2) In Table I the anticonvulsive effect of some compounds of the invention in the electroshock test is presented [J. Pharmacol. Exp. Ther. 106, 319 (1952)]. The anticonvulsive effect was also studied in convulsions induced by various chemical agents, e. g. pentetrazole [J. Pharmacol. Exp. Ther 108, 168 (1953)], strychnine [J. Pharmacol. Exp. Ther. 129, 75 (1960)], bemegride, nicotine, bicuculline, 4-aminopyridine and 3-mercaptopropionic acid. The pretreatment period was 60 minutes. The test compounds were administered orally in 3 doses to 10 male CD 1 mice in each dose group.

In series [4] the test system is bemegride induced convulsions in mice. Description: Anticonvulsive effect, bemegride induced convulsions. It is filed as in vivo. Particulars: Mus musculus, po, 60 minutes pretreatment. How it is done:
as §2

In series [5] the test system is nicotine induced convulsions in mice. Kind of series: Anticonvulsive effect, nicotine induced convulsions. In kind it is in vivo. Particulars: Mus musculus, po, 60 minutes pretreatment. As for the experimental part: as §2
The subject of series [6] is pentetrazole induced convulsions in mice. Description: Anticonvulsive effect, pentetrazole induced convulsions. In kind it is in vivo. Particulars: Mus musculus, po, 60 minutes pretreatment. How it is done: as §2
In series [7] the test system is AMPA receptors (kainate induced current, Purkinje cells). Description: Inhibition of kainate induced whole cell currents on Purkinje cells of the cerebellum. In kind it is cell-based. Particulars: 100 μM kainate, read-out: IC50 against kainate, whole cell currents. As for the experimental part: (§3) Inhibition of AMPA and Kainate Induced Transmembrane Currents
(§4) The effect of the compound of Example 17 on whole cell currents induced by 100 μM kainate or 5 μM AMPA, resp., was studied on Purkinje cells of the cerebellum according to the method of Bleakman et al. [Neuropharmacology 12, 1689 (1996)]. […] In this preparation kainate was also exerting its effect through the activation of AMPA receptors.

The subject of series [8] is AMPA (5 μM) induced spreading depression, isolated chicken retina. Kind of series: Inhibition of AMPA induced spreading depression in the isolated chicken retina preparation. It is filed as cell-based. Particulars: Gallus gallus. The source says:
(§5) In the first model the “spreading depression” inducing effect of glutamate agonists was studied, while in the second model the transmembrane ion current induced by the activation of glutamate receptors was directly measured.
(§6) Inhibition of AMPA and Kainate Induced “Spreading depression” in the Isolated Chicken Retina Preparation
(§7) The kainate and AMPA antagonizing effect was studied in vitro in the retinal “spreading depression” model [M. J. Sheardown: Brain Res. 607, 189 (1993)]. The AMPA/kainate antagonists extend the latency of the kainate (5 μM) or AMPA (5 μM) induced development of “spreading depression”.

Series [9] concerns anesthesized rats, middle cerebral artery occlusion. Kind of series: Inhibition of focal ischemia, middle cerebral artery occlusion (MCAO) test. In kind it is in vivo. Particulars: for Infarcted area in percent of cerebral hemosphere / Score of infarcted area (size of infarcted area) / Change % of size of infarcted area: MCAO; for Change % of size of infarcted area: versus vehicle. How it is done: The focal ischemia inhibiting effect of the compound of Example 17 was studied on the “middle cerebral artery occlusion” (MCAO) test in anesthesized rats. […] After histological processing the developed infarcted area was measured by a computerized scanner program [R. T. Bartus: Stroke 11, 2265 (1994) and S. G. Sydserff: Brit. J. Pharmacol. 114, 1631 (1995)].

The subject of series [10] is kainate (5 μM) induced spreading depression, isolated chicken retina. Description: Inhibition of kainate induced spreading depression in the isolated chicken retina preparation. In kind it is cell-based. Particulars: Gallus gallus.
Excerpt: as §5, §6, §7

For series [11], the system named is AMPA receptors (AMPA induced current, Purkinje cells). Description: Inhibition of AMPA induced whole cell currents on Purkinje cells of the cerebellum. It is filed as cell-based. As for the experimental part: as §3, §4
Series [12] has as its system bicuculline induced convulsions in mice. Kind of series: Anticonvulsive effect, bicuculline induced convulsions. It is filed as in vivo. Particulars: Mus musculus, po, 60 minutes pretreatment. As for the experimental part:
as §2

Turning to `NCC(CC(=O)O)c1ccc(Cl)cc1` (stereo not drawn) [Baclofen, reference compound], the 50% effective dose (ED50) was determined as 13 mg/kg in the series with CD 1 mice [1] and 26 mg/kg in the series with CD 1 mice [2].

Take `O=C1NC(=O)C(c2ccccc2)(c2ccccc2)N1` [Phenytoin, reference compound]: the ED50 was 10 mg/kg in series [3], greater than 200 mg/kg in series [4], 12 mg/kg in series [5] and greater than 400 mg/kg in [6].

The compound `Cc1cn2c(n1)Cc1ccc(Cl)cc1C(c1ccc(N)cc1)=N2` [Example 17] had a melting point of 229 to 230 °C. In addition, it took a dose of 16 mg/kg to reach the 50% effect level in the series on CD 1 mice [1] (ED50). In series [7], the negative-log IC50 (pIC50) is 5.30. The pIC50 in [8] was 5.14. In addition, the 50% effective dose (ED50) in [3] was 24 mg/kg. In addition, the “Rate of cerebral cell damage induced by occlusion of the middle cerebral artery” value in series [9] (6×1 mg/kg i.v.) was “significantly reduced”. In addition, in [9] (6 × 1 mg/kg i.v.), the “Infarcted area in percent of cerebral hemosphere” value is 13.4 ± 3.64%, the “Score of infarcted area (size of infarcted area)” value came to 16122 ± 4368 and the “Change % of size of infarcted area” value is −60.2%. In [9] (6 × 2 mg/kg i.v.), the “Infarcted area in percent of cerebral hemosphere” value turned out to be 11.0 ± 1.93%, the “Score of infarcted area (size of infarcted area)” value was 13229 ± 2313 and the “Change % of size of infarcted area” value is −67.4%. This compound showed a negative-log IC50 (pIC50) in series [10] of 5.60. In addition, the negative-log IC50 (pIC50) in series [11] (Purkinje cells of the cerebellum, 5 μM AMPA, read-out: IC50 against AMPA, whole cell currents) is 5.69. Moreover, the “Inhibition of ion current induced by AMPA receptor activation relative to GYKI 52466” value in series [11] (Purkinje cells, compared by IC50 values) is on record as “twice as strongly inhibited”. Also, the ED50 in series [5] is 13 mg/kg. The compound also gave an ED50 with CD 1 mice [2] of 36 mg/kg. In addition, the median effective dose (ED50) in series [12] is 23 mg/kg.
